Measured values: patent publication EP1222194B1, “7-ACYLAMINO-3-HETEROARYLTHIO-3-CEPHEM CARBOXYLIC ACID ANTIBIOTICS AND PRODRUGS THEREOF” (priority 1999, dated 2001)
Values after ≈ are worked out from the molar mass of the structure shown. Read-outs that look alike come from different tables or passages of the source.

Tests used:
[1] = system: E. coli ATCC25992; assay: Broth microdilution MIC (NCCLS); assay type: cell-based; conditions: Escherichia coli, Mueller-Hinton Broth, 24 h at 35 °C
Protocol: (§1) Compounds were evaluated for antimicrobial activity against a panel of bacterial strains using a broth microdilution assay performed as recommended by the NCCLS (1). The minimum inhibitory concentration (MIC) was defined as the lowest concentration of drug which prevented the growth of the bacteria. The following 16 organisms constituted the primary panel of evaluation:
(§2) For this primary panel, the assay was performed in Mueller-Hinton Broth (MHB) with a final bacterial inoculum of 5 x 10^5 CFU/mL (from an early-log phase culture) and a final volume of 100 µL. Control drugs, including imipenem, vancomycin, Penicillin G, dicloxacillin (vs. MSSA ATCC29213 only), and new compounds were prepared at a concentration equivalent to 2-fold the desired final concentration. Dilution of compounds were prepared directly in the plates by serial 2-fold dilution using a multichannel pipette. Positive and negative growth control were included in each plate.
(§3) The bacterial inocula were prepared as follows. For each strain one isolated colony was used to inoculate a volume of 8 mL of Mueller-Hinton broth and these cultures were incubated overnight (20h) at 35 °C in a shaking incubator. At the exception of Enterococcus strains, culture were then diluted 1:10 and allowed to grow for an additional one hour at 35 °C in a shaking incubator. The inocula were prepared by diluting the early log-phase (1h) cultures 1:1000 with fresh Mueller-Hinton broth. E. faecium and E. faecalis were prepared by diluting overnight cultures 1:333 and 1:666, respectively, with fresh Mueller-Hinton broth . A volume of 50 µL of the inocula was added to each well. […] The exact inocula were determined by applying […] of 10-fold serial dilution of the bacterial suspensions on TSA. After overnight incubation at 35 °C, colony forming units were manually counted.
(§4) Microtiter plates were incubated during 24 h at 35 °C and were read using a microtiterplate reader (Molecular Devices) at 650 nm as well as by visual observation using a microtiterplate reading mirror.

[2] = system: E. faecalis ATCC 29212; assay: Broth microdilution MIC (NCCLS); assay type: cell-based; conditions: Enterococcus faecalis, ATCC29212, Mueller-Hinton Broth, 24 h at 35 °C
Protocol: as §1, §2, §3, §4

[3] = system: E. faecalis VanB (Van^R); assay: Broth microdilution MIC (NCCLS); assay type: cell-based; conditions: Enterococcus faecalis, Mueller-Hinton Broth, 24 h at 35 °C
Protocol: as §1, §2, §3, §4

[4] = system: E. faecium A491 (Amp^R); assay: Broth microdilution MIC (NCCLS); assay type: cell-based; conditions: Enterococcus faecium, Mueller-Hinton Broth, 24 h at 35 °C
Protocol: as §1, §2, §3, §4

[5] = system: E. faecium ATCC 35667; assay: Broth microdilution MIC (NCCLS); assay type: cell-based; conditions: Enterococcus faecium, ATCC35667, Mueller-Hinton Broth, 24 h at 35 °C
Protocol: as §1, §2, §3, §4

[6] = system: E. faecium VanA (Van^R); assay: Broth microdilution MIC (NCCLS); assay type: cell-based; conditions: Enterococcus faecium, Mueller-Hinton Broth, 24 h at 35 °C
Protocol: as §1, §2, §3, §4

[7] = system: P. aeruginosa ATCC 27853; assay: Broth microdilution MIC (NCCLS); assay type: cell-based; conditions: Pseudomonas aeruginosa, ATCC27853, Mueller-Hinton Broth, 24 h at 35 °C
Protocol: as §1, §2, §3, §4

[8] = system: S. aureus 76 (Meth^R)(lac^+); assay: Broth microdilution MIC (NCCLS); assay type: cell-based; conditions: Staphylococcus aureus, Mueller-Hinton Broth, 24 h at 35 °C
Protocol: as §1, §2, §3, §4

[9] = system: S. aureus ATCC 13709 (Meth^S); assay: Broth microdilution MIC (NCCLS); assay type: cell-based; conditions: Staphylococcus aureus, ATCC13709, Mueller-Hinton Broth, 24 h at 35 °C
Protocol: as §1, §2, §3, §4

[10] = system: S. aureus ATCC 29213; assay: Broth microdilution MIC (NCCLS); assay type: cell-based; conditions: Staphylococcus aureus, ATCC29213, Mueller-Hinton Broth, 24 h at 35 °C
Protocol: as §1, §2, §3, §4

[11] = system: S. aureus ATCC 33593 (Meth^R); assay: Broth microdilution MIC (NCCLS); assay type: cell-based; conditions: Staphylococcus aureus, ATCC33593, Mueller-Hinton Broth, 24 h at 35 °C
Protocol: as §1, §2, §3, §4

[12] = system: S. aureus Col8A(Meth^S)(lac^-); assay: Broth microdilution MIC (NCCLS); assay type: cell-based; conditions: Staphylococcus aureus, Mueller-Hinton Broth, 24 h at 35 °C
Protocol: as §1, §2, §3, §4

[13] = system: S. aureus PC1 (Meth^S)(lac^+); assay: Broth microdilution MIC (NCCLS); assay type: cell-based; conditions: Staphylococcus aureus
Protocol: as §1, §2, §3, §4

[14] = system: S. aureus Spain #356 (Meth^R); assay: Broth microdilution MIC (NCCLS); assay type: cell-based; conditions: Staphylococcus aureus, Mueller-Hinton Broth, 24 h at 35 °C
Protocol: as §1, §2, §3, §4

[15] = system: S. haemolyticus 05 (Meth^R); assay: Broth microdilution MIC (NCCLS); assay type: cell-based; conditions: Staphylococcus haemolyticus, Mueller-Hinton Broth, 24 h at 35 °C
Protocol: as §1, §2, §3, §4

[16] = In vitro stability of compounds in rat serum; assay type: in vitro ADME
Protocol: In general, compounds from the class of 7-acylamino-3-heteroarylthio-3-cephem carboxylic acids have higher chemical reactivity and lower stability towards chemical or enzymatic decomposition than most typical cephalosporins. […] Results shown in Table 2 represent percentage loss of the initial amount of cephalosporin compound upon 60 min incubation in rat serum.
Procedure for measuring degree of degradation of cephalosporin compounds in rat serum was as follows:
Fresh control rat serum (heparinized and stored frozen) is preincubated at 37 °C for 15 min in a shaking water bath. pH is measured using test strips. 25 µL of a 2 mg/mL solution cephalosporin compound (in water) of is then added to each matrix to make 1000 µL. Solutions were incubated at 37 °C. 100ul of solution was taken out at time = 0, 15, 30, and 60 min post dose and added 200 µL 4% trichloroacetic acid, vortexed, and centrifuged for 10 min at 14,000 rpm in an Eppendorfmicrocentrifuge. 25 µL of each supernatant was injected onto HPLC. Experiment was repeated using 25 µL of a 0.2 mg/mL cephalosporin compound. Degradation is measured as the percentage of HPLC peak area at time t relative to peak area at time 0.
HPLC conditions: Beckman Ultrasphere C18 column. 5u. 4.6mm x 25cm. 1 mL/min of 95% 0.1 M ammonium acetate, pH 6, 5% ACN going to 75% buffer/organic over 20min. UV monitored at 254 and 280 nm.

[17] = system: S. aureus ATCC 13709 (Smith diffuse); assay: Murine model for lethal bacteremic peritonitis (septicemia); assay type: in vivo, mice; conditions: Staphylococcus aureus, ATCC13709, sc; mice, S. aureus ATCC 13709 ip; subcutaneous treatment at 0 and 2 hrs post-challenge; probit method; no unit given for ED50 (doses in mg/kg); read-out: Efficacy in murine septicemia ED50
Protocol: 10 mice/group were injected intraperitoneally with 2.98x10^7 cfu S. aureus ATCC 13709 (Smith diffuse) and treated at 0 and 2hrs post-challenge with serial two-fold doses of new cephalosporin antibiotic, imipenem and vancomycin subcutaneously in order to determine the ED50. Male Swiss-Webster mice weighing originally 24.2 - 26.1 g were obtained from Charles Rivers Labs, Hollister, CA. Mice were housed 10 per cage and given free access to water and mouse chow.
Staphylococcus aureus ATCC 13709 (Smith diffuse) was grown overnight at 37 °C in Brain-heart Infusion broth (BHIB). The following morning, it was subcultured to fresh BHIB and incubated for 4-5h at 37 °C. The log-phase growth cells were washed once with physiological saline and adjusted to the desired concentration by correlation of absorbency at OD 600 nm with predetermined plate counts (NCCLS, 1994). The cell suspension was mixed with an equal volume of sterile 14% hog-gastric mucin (2). Inoculum was kept in an ice bath until used (<1h).
Mice were challenged via an injection of 0.5 mL bacterial suspension intraperitoneally. The bacterial challenge was 2.98 x 10^7 cfu/mouse.
Imipenem (Primaxin IV; Lot 7294A), vancomycin (Vancocin; Lot 8MU60W), and new cephalosporin antibiotic were prepared by serial two-fold dilutions to concentrations of 0.078 - 0.005 mg/mL, 1.2 - 0.075 mg/mL, 0.3 - 0.02 mg/mL, 0.3 - 0.02 mg/mL and 0.3 - 0.02 mg/mL respectively in sterile water (1). All antibiotics were administered subcutaneously in 0.1 mL volumes at 0 and 2 hours post-challenge. Concentrations of all compounds are based on the weight of the bioactive ingredients.
The 50% effective dose (ED50) was calculated by the probit method (3) utilizing a program entitled Probit (Nycomed-Salutar).

Compound: C[C@@H](O)[C@H]1C(=O)N2C(C(=O)O)=C(SCCN=CN)C[C@H]12 [Imipenem, reference compound]
- MIC [1]: ≤ 0.25 µg/mL
- MIC [2]: ≤ 0.25 µg/mL
- MIC [3]: 0.5 µg/mL (≈ 1.67 µM)
- MIC [4]: > 128 µg/mL
- MIC [5]: 4 µg/mL (≈ 13.4 µM)
- MIC [6]: 4 µg/mL (≈ 13.4 µM)
- MIC [7]: 1 µg/mL (≈ 3.34 µM)
- MIC [8]: 32 µg/mL (≈ 107 µM)
- MIC [9]: ≤ 0.008 µg/mL
- MIC [10]: ≤ 0.008 µg/mL
- MIC [11]: 32 µg/mL (≈ 107 µM)
- MIC [12]: 0.015 µg/mL (≈ 0.0501 µM)
- MIC ([13]; 24 h): 0.015 µg/mL (≈ 0.0501 µM)
- MIC [14]: 32 µg/mL (≈ 107 µM)
- MIC [15]: 64 µg/mL (≈ 214 µM)
- degraded at 1 h ([16]; % loss after 60 min exposure to rat serum as determined by HPLC, 37 °C): 20%
- ED50 [17]: 0.07 mg/kg

Compound: NCCSCc1ccncc1SC1=C(C(=O)O)N2C(=O)[C@@H](NC(=O)/C(=N\O)c3nsc(N)n3)[C@H]2SC1 [Cmpd 4, (7R)-7-[(Z)-2-(5-amino-1,2,4-thiadiazol-3-yl)-2-(hydroxyimino)acetamido]-3-[4-(2-aminoethylthiomethyl)pyrid-3-ylthio]-3-cephem-4-carboxylic acid]
- MIC [1]: 4 µg/mL (≈ 7.03 µM)
- MIC [2]: 2 µg/mL (≈ 3.52 µM)
- MIC [3]: 2 µg/mL (≈ 3.52 µM)
- MIC [4]: > 32 µg/mL
- MIC [5]: 8 µg/mL (≈ 14.1 µM)
- MIC [6]: 8 µg/mL (≈ 14.1 µM)
- MIC [7]: > 32 µg/mL
- MIC [8]: 8 µg/mL (≈ 14.1 µM)
- MIC [10]: 0.5 µg/mL (≈ 0.879 µM)
- MIC [11]: 8 µg/mL (≈ 14.1 µM)
- MIC ([13]; S. aureus PC1 (Meth^S)(lac^+), Mueller-Hinton Broth, 24 h at 35 °C, read-out: MIC): 0.5 µg/mL (≈ 0.879 µM)
- MIC [14]: 16 µg/mL (≈ 28.1 µM)
- MIC [15]: 16 µg/mL (≈ 28.1 µM)
- stability in rat serum (statement in words) ([16]; compared with other 7-acylamino-3-heteroarylthio-3-cephem carboxylic acids): improved stability
